Results reported in US20090233975A1, “Hair resiliency/body improver and hair cosmetic” (priority 2005, published 2009).

Test system: KAP5.1 gene
Test: KAP5.1 reporter assay (dual luciferase, pGL3-KAP5.1 in IORS cells)
Format: cell-based, human
Conditions: overnight culture, negative control K-SFM(−) = 100
Experimental: A DNA fragment of about 15 kb containing KAP5.1 gene and KAP5.2 gene was amplified by PCR using an NM-F1 primer (SEQ ID NO. 6), in which the recognition sites of restriction endonuclease NotI and MluI were added to the 5′-terminal thereof, and an R2 primer (SEQ ID NO. 7), and using commercially available human genomic DNA (obtained from Promega) as the template (FIG. 1-A).
The amplified DNA fragment was double-digested with restriction endonucleases MluI and NheI, and a DNA fragment of about 4.9 kb was recovered following separation by agarose gel electrophoresis. This DNA fragment was cloned between the MluI and NheI sites of reporter vector pGL-3basic (obtained from Promega) having a gene that encodes firefly luciferase (FIG. 1-B). Reporter plasmid pGL-3-KAP5.1 containing the 5′ upstream region (SEQ ID NO. 8) of KAP5.1 was then constructed by subcloning [Step 1: subcloning of SacI/NcoI fragment (154 bp, FIG. 2) to pGL-3basic; Step 2: insertion of ScaI fragment (about 4.0 kbp, FIG. 2) into resulting plasmid] (FIG. 2).
8×10^5 immortalized outer root sheath (IORS) cells (obtained in accordance with Japanese Unexamined Patent Publication (Kokai) No. 2000-89) were seeded into a 75 cm^2 flask and cultured for 6 days under conditions of 37° C. and 5% CO2. Keratinocyte-SFM medium (Gibco) was used as the medium.
Day 1: Plasmid DNA Transfection (transient). The cultured IORS cells were dually transformed with the previously constructed reporter plasmid pGL3-KAP5.1 (firefly luciferase) and commercially available internal standard plasmid pRL-TK (renilla luciferase) in accordance with the manual provided with Effectene Transfection Reagent (Qiagen).
Day 2: The transformed cells were re-seeded into in a 24-well multiwell plate at 10 to 16×10^4 cells per well and cultured overnight under conditions of 37° C. and 5% CO2.
Day 3: The medium in each well was replaced with a basal medium in which each drug was dissolved followed by culturing overnight under conditions of 37° C. and 5% CO2.
Day 4: Assay. Luciferase activity was assayed for each well using the Dual-Luciferase Reporter Assay System (Promega) in accordance with the manual provided by the manufacturer. The AutoLumat LB953 (Berthold) was used for the luminometer.
An assay was carried out under the same conditions with the exception of not containing drug as a negative control [K-SFM(−)]. The effect of increasing gene expression are represented in the form of the rate of increase (ratio based on a value of 100 for the negative control).

`CC(=O)Nc1nc(C)cs1` [2-acetamido-4-methylthiazole] was tested, and the “Rate of Increase (KAP5.1 gene expression, ratio based on a value of 100 for the negative control)” value (10 ppm drug) was 110 and the “Rate of Increase (KAP5.1 gene expression, ratio based on a value of 100 for the negative control)” value (100 ppm drug) was 150.

In the case of `CC(=O)Nc1nccs1` [2-acetamidothiazole], the “Rate of Increase (KAP5.1 gene expression, ratio based on a value of 100 for the negative control)” value (10 ppm drug) is reported as 130 and the “Rate of Increase (KAP5.1 gene expression, ratio based on a value of 100 for the negative control)” value (100 ppm drug) is reported as 180.

In the case of `Nc1nccs1` [2-aminothiazole], the “Rate of Increase (KAP5.1 gene expression, ratio based on a value of 100 for the negative control)” value (10 ppm drug) is reported as 110 and the “Rate of Increase (KAP5.1 gene expression, ratio based on a value of 100 for the negative control)” value (100 ppm drug) is reported as 140.

`CC(=O)Nc1cc(C)on1` [3-acetamido-5-methylisoxazole] was tested, and the “Rate of Increase (KAP5.1 gene expression, ratio based on a value of 100 for the negative control)” value (10 ppm drug) was 100, the “Rate of Increase (KAP5.1 gene expression, ratio based on a value of 100 for the negative control)” value (100 ppm drug) was 110 and the “Rate of Increase (KAP5.1 gene expression, ratio based on a value of 100 for the negative control)” value (300 ppm drug) was 125.

In the case of `Cc1cc(N)no1` [3-amino-5-methylisoxazole], the “Rate of Increase (KAP5.1 gene expression, ratio based on a value of 100 for the negative control)” value (10 ppm drug) is reported as 120, the “Rate of Increase (KAP5.1 gene expression, ratio based on a value of 100 for the negative control)” value (100 ppm drug) is reported as 140 and the “Rate of Increase (KAP5.1 gene expression, ratio based on a value of 100 for the negative control)” value (300 ppm drug) is reported as 160.
